Assay [1] deals with T1, MAGL (Mus musculus (Mouse), UniProt O35678). The assay can be described thus: In vitro competitive activity-based protein profiling, MAGL (mouse). It counts as biochemical. As to conditions: for inhibition at 1 µM: read-out: MAGL % inh. 1 μM (mouse). A digest of the protocol: (§1)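 Proteomes at 1.0 mg/mL protein (mouse brain membranes or cell lysates; human prefrontal cortex or cell membranes) preincubated with inhibitor 30 min at 37 °C. Then FP-Rh or HT-01 probe (50 μM stock) added for 30 min at 37 °C. MAGL and FAAH activity measured by SDS-PAGE band fluorescence.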
T1 sequence (O35678 whole entry): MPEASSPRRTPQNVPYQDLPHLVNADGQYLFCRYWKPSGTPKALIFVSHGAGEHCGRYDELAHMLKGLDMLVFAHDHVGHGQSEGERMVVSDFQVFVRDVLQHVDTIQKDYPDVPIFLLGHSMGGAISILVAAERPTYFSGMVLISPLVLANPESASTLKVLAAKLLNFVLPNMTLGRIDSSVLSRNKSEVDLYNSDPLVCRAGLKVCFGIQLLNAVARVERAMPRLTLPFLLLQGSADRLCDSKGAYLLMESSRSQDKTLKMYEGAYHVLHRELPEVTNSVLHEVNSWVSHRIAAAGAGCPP

For the next assay, the target named is FAAH (Mus musculus (Mouse), UniProt O08914). The assay can be described thus: In vitro competitive activity-based protein profiling, FAAH (mouse). The assay is classed as biochemical. Particulars: for inhibition at 1 µM: read-out: FAAH % inh. 1 μM (mouse). A digest of the protocol: as §1
Sequence of FAAH (O08914 whole entry): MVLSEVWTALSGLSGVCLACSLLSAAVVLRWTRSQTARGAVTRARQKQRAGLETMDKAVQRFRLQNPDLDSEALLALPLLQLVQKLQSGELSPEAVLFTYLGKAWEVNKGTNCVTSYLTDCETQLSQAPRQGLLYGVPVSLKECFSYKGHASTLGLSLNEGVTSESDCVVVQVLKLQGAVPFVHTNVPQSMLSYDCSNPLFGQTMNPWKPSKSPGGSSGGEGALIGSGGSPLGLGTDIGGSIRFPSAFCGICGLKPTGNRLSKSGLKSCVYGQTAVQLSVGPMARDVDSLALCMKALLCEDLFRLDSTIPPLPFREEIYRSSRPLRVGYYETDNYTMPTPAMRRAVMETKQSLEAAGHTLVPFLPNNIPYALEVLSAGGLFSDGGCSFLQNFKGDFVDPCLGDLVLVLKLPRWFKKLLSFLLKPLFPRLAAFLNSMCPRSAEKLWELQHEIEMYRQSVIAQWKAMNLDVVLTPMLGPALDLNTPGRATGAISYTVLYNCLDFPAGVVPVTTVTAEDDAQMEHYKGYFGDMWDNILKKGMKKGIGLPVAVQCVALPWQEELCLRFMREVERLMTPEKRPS
Assay [2] deals with T1, MAGL. The assay can be described thus: Mouse brain proteomes from inhibitor treated mice (oral gavage, 4 h), MAGL. The assay is classed as in vivo. Particulars: read-out: MAGL % inh. 5 mg/kg (mouse). As for the experimental part:
Preparation of Mouse Brain Proteomes from Inhibitor Treated Mice.
Inhibitors were administered to wild-type C57Bl/6J by oral gavage in a vehicle of polyethylene glycol. Each animal was sacrificed 4 h following administration and brain proteomes were prepared and analyzed according to previously established methods (See Niphakis, M. J., et al. (2011) ACS Chem. Neurosci. and Long, J. Z., et al. Nat. Chem. Biol. 5:37-44).

Structures are written as SMILES. pIC50: −log10 of the molar value.

In the case of `Cc1cc(-c2ccccc2)ccc1CN1CCN(C(=O)n2cc(NS(C)(=O)=O)cn2)CC1` [Example 219, N-(1-(4-((3-methyl-[1,1′-biphenyl]-4-yl)methyl)piperazine-1-carbonyl)-1H-pyrazol-4-yl)methanesulfonamide], at MAGL [1], the pIC50 was 5.00 to 6.00 and the inhibition at 1 µM is at least 75%. For the same compound, at FAAH, the pIC50 was at least 7.00 and the inhibition at 1 µM is at least 75%. Besides, on MAGL [2], the inhibition at 5 mg/kg is at least 75%.

As to `CC(=O)N(C)c1cnn(C(=O)N2CCC3(CCN(Cc4cccc(Oc5ccccc5)c4)C3)C2)c1` (stereo not shown) [Example 236, N-methyl-N-(1-(7-(3-phenoxybenzyl)-2,7-diazaspiro[4.4]nonane-2-carbonyl)-1H-pyrazol-4-yl)acetamide], the results for the pIC50 at MAGL [1] and on FAAH were 6.00 to 7.00 and at least 7.00, respectively. For the same compound, the inhibition at 1 µM on MAGL [1] and on FAAH was at least 75% throughout. In addition, the inhibition at 5 mg/kg on MAGL [2] was in the range of 25 to 50%.

Take `CC(=O)N(C)c1cnn(C(=O)N2CC3CN(Cc4ccc(Oc5cncnc5)cc4Cl)CC3C2)c1` (stereo not shown) [Example 274, N-(1-(5-(2-chloro-4-(pyrimidin-5-yloxy)benzyl)octahydropyrrolo[3,4-c]pyrrole-2-carbonyl)-1H-pyrazol-4-yl)-N-methylacetamide]: at MAGL [1], the pIC50 is at least 7.00 and the inhibition at 1 µM was at least 75%. Besides, at FAAH, the negative logarithm of the IC50 (pIC50) was 6.00 to 7.00 and the inhibition at 1 µM is at least 75%. In addition, the inhibition at 5 mg/kg at MAGL [2] fell in the range of 0 to 25%.

With `CS(=O)(=O)Nc1cnn(C(=O)N2CCN(Cc3ccc(N4CCCC4)cc3C(F)(F)F)CC2)c1` [Example 292, N-(1-(4-(4-(pyrrolidin-1-yl)-2-(trifluoromethyl)benzyl)piperazine-1-carbonyl)-1H-pyrazol-4-yl)methanesulfonamide], on MAGL [1], the pIC50 was at least 7.00 and the inhibition at 1 µM lay in the range of 25 to 50%. On FAAH, the pIC50 was 5.00 to 6.00 and the inhibition at 1 µM was at least 75%. Besides, at MAGL [2], the inhibition at 5 mg/kg lay within 50 to 75%.

For `CS(=O)(=O)Nc1cnn(C(=O)N2CCC3(CCN(Cc4cc(Cl)cc(C(F)(F)F)c4)C3)CC2)c1` [Example 297, N-(1-(2-(3-chloro-5-(trifluoromethyl)benzyl)-2,8-diazaspiro[4.5]decane-8-carbonyl)-1H-pyrazol-4-yl)methanesulfonamide], at MAGL [1], the pIC50 is at least 7.00 and the inhibition at 1 µM is at least 75%. Besides, on FAAH, the pIC50 was at least 7.00 and the inhibition at 1 µM was at least 75%. Besides, the inhibition at 5 mg/kg on MAGL [2] was at least 75%.

Regarding `CC(=O)Nc1cnn(C(=O)N2CCC3(CCN(Cc4cc(Cl)cc(C(F)(F)F)c4)C3)CC2)c1` [Example 313, N-(1-(2-(3-chloro-5-(trifluoromethyl)benzyl)-2,8-diazaspiro[4.5]decane-8-carbonyl)-1H-pyrazol-4-yl)acetamide], the inhibition at 1 µM on MAGL [1] and at FAAH was at least 75% in each case. In addition, the inhibition at 5 mg/kg on MAGL [2] was at least 75%.

Source of the values: patent US10323038B2, “Pyrazole compounds and methods of making and using same” (ABIDE THERAPEUTICS, INC., priority 2015, dated 2019).
